Patent US20100298137A1, “ACTIVE INGREDIENT COMBINATIONS WITH INSECTICIDAL PROPERTIES” (BAYER CROPSCIENCE AG, priority 2006, published 2010)

What was measured:
Aphis gossypii = Aphis gossypii test (cotton leaves dipped into the preparation of active compound); assay type: in vivo; settings: leaf dip
Source text: (§1) The expected activity for a given combination of two active compounds can be calculated according to S. R. Colby, Weeds 15 (1967), 20-22 as follows:
(§2) If • X is the kill rate, expressed in % of the untreated control, when active compound A is applied at an application rate of m g/ha or at a concentration of m ppm, • Y is the kill rate, expressed in % of the untreated control, when active compound B is applied at an application rate of n g/ha or at a concentration of n ppm and • E is the kill rate, expressed in % of the untreated control, when active compounds A and B is applied at application rates of m and n g/ha or at a concentration of m and n ppm, then
(§3) If the actual kill rate is greater than calculated, the kill of the combination is superadditive, i.e. there is a synergistic effect. In this case, the actual observed kill rate has to be greater than the value for the expected kill rate (E) calculated from the formula given above.
(§4) To produce a suitable preparation of active compound, 1 part by weight of active compound is mixed with the stated amounts of solvent and emulsifier, and the concentrate is diluted with emulsifier-containing water to the desired concentration.
Cotton leaves (Gossypium hirsutum) which are heavily infested by the cotton aphid (Aphis gossypii) are treated by being dipped into the preparation of active compound of the desired concentration.
(§5) After the desired period of time, the kill in % is determined. 100% means that all aphids have been killed; 0% means that none of the aphids have been killed. The kill rates determined are entered into the Colby formula (see sheet 1).

Myzus persicae = Myzus persicae test (cabbage leaves dipped into the preparation of active compound); assay type: in vivo; settings: leaf dip
Source text: as §1, §2, §3, §4
Cabbage leaves (Brassica oleracea) which are heavily infested by the green peach aphid (Myzus persicae) are treated by being dipped into the preparation of active compound of the desired concentration.
as §5

Molecule: emamectin benzoate
- Kill in % after 1 d (Aphis gossypii; 20 ppm): 10%

Molecule: CC(C)N1C(=O)N(c2ccccc2)CS/C1=N\C(C)(C)C [buprofezin]
- Kill in % after 1 d (Aphis gossypii; 100 ppm): 5%
- Kill in % after 1 d (Myzus persicae; 100 ppm): 0%

Molecule: CNC(=O)c1cc(Cl)cc(C)c1NC(=O)c1cc(Br)nn1-c1ncccc1Cl [rynaxapyr, 3-bromo-N-{4-chloro-2-methyl-6-[(methylamino)carbonyl]phenyl}-1-(3-chloropyridin-2-yl)-1H-pyrazole-5-carboxamide]
- Kill in % after 6 d (Aphis gossypii; 0.8 ppm): 15%
- Kill in % after 1 d (Myzus persicae; 4 ppm): 30%

Molecule: FC(F)(F)c1ccc(OCCCOc2c(Cl)cc(OCC=C(Cl)Cl)cc2Cl)nc1 [pyridalyl]
- Kill in % after 1 d (Aphis gossypii; 100 ppm): 5%
- Kill in % after 6 d (Myzus persicae; 100 ppm): 0%

Molecule: abamectin
- Kill in % after 1 d (Myzus persicae; 100 ppm): 55%

Molecule: CC[S+]([O-])c1c(C#N)nn(-c2c(Cl)cc(C(F)(F)F)cc2Cl)c1N (centres unmarked) [ethiprole]
- Kill in % after 6 d (Aphis gossypii; 0.8 ppm): 30%

Molecule: N#Cc1nn(-c2c(Cl)cc(C(F)(F)F)cc2Cl)c(N)c1[S+]([O-])C(F)(F)F (centres unmarked) [fipronil]
- Kill in % after 6 d (Aphis gossypii; 20 ppm): 70%
- Kill in % after 6 d (Myzus persicae; 4 ppm): 0%

Molecule: Cc1cc(C(F)(C(F)(F)F)C(F)(F)F)ccc1NC(=O)c1cccc(I)c1C(=O)NC(C)(C)CS(C)(=O)=O [flubendiamid, flubendiamide]
- Kill in % after 6 d (Myzus persicae; 100 ppm): 6%

Molecule: spinosad
- Kill in % after 1 d (Myzus persicae; 100 ppm): 5%
- Kill in % after 6 d (Myzus persicae; 100 ppm): 5%

Molecule: COc1cccc(C(=O)NN(C(=O)c2cc(C)cc(C)c2)C(C)(C)C)c1C [methoxyfenozide]
- Kill in % after 1 d (Aphis gossypii; 100 ppm): 0%
- Kill in % after 1 d (Myzus persicae; 100 ppm): 0%

Molecule: COC(=O)N(C(=O)N1COC2(C(=O)OC)Cc3cc(Cl)ccc3C2=N1)c1ccc(OC(F)(F)F)cc1 (centres unmarked) [indoxacarb]
- Kill in % after 1 d (Aphis gossypii; 100 ppm): 0%
- Kill in % after 6 d (Myzus persicae; 100 ppm): 20%

Molecule: O=C1C=C(N(Cc2ccc(Cl)nc2)C2CC2)CO1 [compound (Ib)]
- Kill in % after 6 d (Aphis gossypii; 0.16 ppm): 0%
- Kill in % after 1 d (Aphis gossypii; 0.8 ppm): 45%
- Kill in % after 6 d (Aphis gossypii; 0.8 ppm): 50%
- Kill in % after 1 d (Aphis gossypii; 4 ppm): 80%
- Kill in % after 6 d (Myzus persicae; 0.16 ppm): 0%
- Kill in % after 1 d (Myzus persicae; 0.8 ppm): 10%
- Kill in % after 1 d (Myzus persicae; 4 ppm): 70%
- Kill in % after 6 d (Myzus persicae; 4 ppm): 33%

Molecule: CN(Cc1ccc(Cl)nc1)C1=CC(=O)OC1 [compound (Ia)]
- Kill in % after 1 d (Aphis gossypii; 0.16 ppm): 20%
- Kill in % after 1 d (Aphis gossypii; 0.8 ppm): 55%
- Kill in % after 1 d (Myzus persicae; 0.16 ppm): 10%
- Kill in % after 6 d (Myzus persicae; 0.16 ppm): 0%
- Kill in % after 1 d (Myzus persicae; 0.8 ppm): 45%
- Kill in % after 6 d (Myzus persicae; 0.8 ppm): 50%
